The values below come from patent US20100222217A1, “Fungicidal N-[2-(Haloalkoxy)Phenyl]Heteroarylcarboxamides” (priority 2005, published 2010).

For the first series, the system named is Alternaria solani. In words: Activity against early blight on tomatoes caused by Alternaria solani. The class given is in vivo. As to conditions: 250 ppm, tomato plants, protective spray, assessed after 5 days; untreated plants 90% infected. The procedure:
The active compounds were separately or jointly prepared as a stock solution comprising 25 mg of active compound which was made up to 10 ml using a mixture of acetone and/or dimethylsulfoxide and the emulsifier Uniperol® EL (wetting agent having emulsifying and dispersing action based on ethoxylated alkylphenols) in a volume ratio of solvent/emulsifier of 99 to 1. The mixture was then made up with water to 100 ml. This stock solution was diluted with the solvent/emulsifier/water mixture described to the desired concentration of active compounds.
Leaves of potted tomato plants of the cultivar “Goldene Königin” were sprayed to runoff point with an aqueous suspension having the concentration of active compounds stated below. The next day, the leaves were infected with an aqueous spore suspension of Alternaria solani in a 2% biomalt solution having a density of 0.17×10^6 spores/ml. The plants were then placed in a water vapor-saturated chamber at temperatures between 20 and 22° C. After 5 days, the disease on the untreated, but infected control plants had developed to such an extent that the infection could be determined visually in %.
In the case of `Cc1nn(C)cc1C(=O)Nc1ccccc1OC(F)(F)C(F)F` [N-[2-(1,1,2,2-tetrafluoroethoxy)phenyl]-1,3-dimethylpyrazol-4-yl-carboxamide], the infection stood at 60%.

A further series relates to Erysiphe [syn. Blumeria] graminis forma specialis. tritici. Nature of the series: Activity against mildew of wheat caused by Erysiphe [syn. Blumeria] graminis forma specialis. tritici. As to conditions: 63 ppm, wheat seedlings, protective spray, assessed after 7 days; untreated plants 90% infected. It is filed as in vivo. The procedure:
The active compounds were separately or jointly prepared as a stock solution comprising 25 mg of active compound which was made up to 10 ml using a mixture of acetone and/or dimethylsulfoxide and the emulsifier Uniperol® EL (wetting agent having emulsifying and dispersing action based on ethoxylated alkylphenols) in a volume ratio of solvent/emulsifier of 99 to 1. The mixture was then made up with water to 100 ml. This stock solution was diluted with the solvent/emulsifier/water mixture described to the desired concentration of active compounds. Leaves of potted wheat seedlings were sprayed to runoff point with an aqueous suspension having the active compound concentration stated below. The suspension was prepared as described above. 24 hours after the spray coating had dried on, the plants were dusted with spores of mildew of wheat (Erysiphe [syn. Blumeria] graminis forma specialis. tritici). The test plants were then placed in a greenhouse at temperatures between 20 and 24° C. and at 60 to 90% relative atmospheric humidity. After 7 days, the extent of the mildew development was determined visually in % infection of the entire leaf area.
`Cn1cc(C(=O)Nc2ccccc2OC(F)(F)C(F)F)c(C(F)(F)F)n1` [N-[2-(1,1,2,2-tetrafluoroethoxy)phenyl]-3-trifluormethyl-1-methylpyrazol-4-yl-carboxamide]: the infection is reported as 70%.

The series is the same for the next values; noted with them: 250 ppm, wheat seedlings, protective spray, assessed after 7 days; untreated plants 80% infected.
As for `Cn1cc(C(=O)Nc2ccccc2OC(F)(F)C(F)F)c(C(F)(F)F)n1` [N-[2-(1,1,2,2-tetrafluoroethoxy)phenyl]-3-trifluormethyl-1-methylpyrazol-4-yl-carboxamide], the infection stood at 40%.

Test system in a further series: not given
Assay: not given
Conditions: not given
In the case of `Cn1cc(C(=O)Nc2ccccc2OC(F)(F)C(F)Cl)c(C(F)F)n1` (stereo not drawn) [Compound I-4, N-[2-(2-chloro-1,1,2-trifluoroethoxy)phenyl]-3-difluoromethyl-1-methyl-1H-pyrazole-4-carboxamide], the melting point (commonly the temperature of the solid-liquid transition) lay within 110 to 111 °C. `O=C(Nc1ccccc1OC(F)(F)C(F)Cl)c1cccnc1Cl` (stereo not drawn) [Compound I-14, N-[2-(2-chloro-1,1,2-trifluoroethoxy)phenyl]-2-chloronicotinamide] showed a melting point of 73 to 76 °C.

The molecule `Cc1nc(C(F)F)c(C(=O)Nc2ccccc2OC(F)(F)C(F)C(F)(F)F)s1` (stereo not drawn) [Compound I-11, N-[2-(1,1,2,3,3,3-hexafluoropropoxy)phenyl]-4-difluoromethyl-2-methylthiazole-5-carboxamide] returned a melting point of 89 to 92 °C. As to `Cn1cc(C(=O)Nc2ccccc2OC(F)(F)C(F)Cl)c(C(F)(F)F)n1` (stereo not drawn) [Compound I-3, N-[2-(2-Chloro-1,1,2-trifluoroethoxy)phenyl]-1-methyl-3-trifluoromethyl-1H-pyrazole-4-carboxamide], the melting point is 94 to 95 °C. Molecule `Cc1nc(C(F)(F)F)c(C(=O)Nc2ccccc2OC(F)(F)C(F)F)s1` [Compound I-6, N-[2-(1,1,2,2-tetrafluoroethoxy)phenyl]-2-methyl-4-trifluoromethylthiazol-5-yl-carboxamide] gave a melting point of 118 to 120 °C. In turn, `Cc1nc(C(F)(F)F)c(C(=O)Nc2ccccc2OC(F)(F)C(F)Cl)s1` (stereo not drawn) [Compound I-9, N-[2-(2-chloro-1,1,2-trifluoroethoxy)phenyl]-2-methyl-4-trifluoromethylthiazole-5-carboxamide] returned a melting point of 80 to 81 °C.

In the case of `Cn1cc(C(=O)Nc2ccccc2OC(F)(F)C(F)C(F)(F)F)c(C(F)(F)F)n1` (stereo not drawn) [Compound I-1, N-[2-(1,1,2,3,3,3-Hexafluoropropoxy)phenyl]-1-methyl-3-trifluoromethyl-1H-pyrazole-4-carboxamide], the melting point is 91 to 93 °C. The molecule `O=C(Nc1ccccc1OC(F)(F)C(F)F)c1cccnc1Cl` [Compound I-12, N-[2-(1,1,2,2-tetrafluoroethoxy)phenyl]-2-chloronicotinamide] yielded a melting point of 126 to 128 °C.

On to `Cc1nc(C(F)(F)F)c(C(=O)Nc2ccccc2OC(F)(F)C(F)C(F)(F)F)s1` (stereo not drawn) [Compound I-8, N-[2-(1,1,2,3,3,3-hexafluoropropoxy)phenyl]-2-methyl-4-trifluoromethylthiazole-5-carboxamide], for which the melting point lay in the range of 70 to 71 °C. The molecule `Cc1nc(C)c(C(=O)Nc2ccccc2OC(F)(F)C(F)F)s1` [Compound I-7, N-[2-(1,1,2,2-tetrafluoroethoxy)phenyl]-2,4-dimethylthiazol-5-ylcarboxamide] displayed a melting point of 134 to 135 °C. Consider `O=C(Nc1ccccc1OC(F)(F)C(F)C(F)(F)F)c1cccnc1Cl` (stereo not drawn) [Compound I-13, N-[2-(1,1,2,3,3,3-hexafluoropropoxy)phenyl]-2-chloronicotinamide], for which the melting point is 85 to 91 °C. As for `Cn1cc(C(=O)Nc2ccccc2OC(F)(F)C(F)F)c(C(F)F)n1` [Compound I-5, N-[2-(1,1,2,2-tetrafluoroethoxy)phenyl]-3-difluoromethyl-1-methyl-1H-pyrazole-4-carboxamide], the melting point lay in the range of 117 to 119 °C.
